Experimental data from ChEMBL document CHEMBL1201862, “PubChem BioAssay data set” (2004).
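In this assay, cells in 96-well plates receive the compound at five concentrations for 48 hours. Endpoints are linearly interpolated between the surrounding concentrations. GI50: concentration for 50% inhibition of growth.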 Active and inactive are the calls of the source. No stated cut-off is given here; in the data, active = GI50 up to about 1.1 µM and inactive = higher.

Assays:
Experiment in all cases: NCI anticancer screen, dose series, 48 h
A498 = tested on: A498
ACHN = tested on: ACHN
COLO 205 = tested on: COLO 205
DMS-114 = tested on: DMS-114
HCT-116 = tested on: HCT-116
HOP-62 = tested on: HOP-62
HOP-92 = tested on: HOP-92
HT-29 = tested on: HT-29
IGROV-1 = tested on: IGROV-1
K562 = tested on: K562
KM-20L2 = tested on: KM-20L2
KM12 = tested on: KM12
LXFL 529 = tested on: LXFL 529
M14 = tested on: M14
M19-MEL = tested on: M19-MEL
Malme-3M = tested on: Malme-3M
NCI-H23 = tested on: NCI-H23
NCI-H460 = tested on: NCI-H460
OVCAR-3 = tested on: OVCAR-3
OVCAR-4 = tested on: OVCAR-4
OVCAR-5 = tested on: OVCAR-5
RPMI-8226 = tested on: RPMI-8226
RXF 393 = tested on: RXF 393
SF-268 = tested on: SF-268
SF-295 = tested on: SF-295
SF-539 = tested on: SF-539
SK-MEL-28 = tested on: SK-MEL-28
SK-MEL-2 = tested on: SK-MEL-2
SK-OV-3 = tested on: SK-OV-3
SNB-19 = tested on: SNB-19
SNB-75 = tested on: SNB-75
SNB-78 = tested on: SNB-78
U-251 = tested on: U-251
UACC-257 = tested on: UACC-257
UACC-62 = tested on: UACC-62
UO-31 = tested on: UO-31
786-0 = tested on: 786-0
A549 = tested on: A549
BT-549 = tested on: BT-549
CAKI-1 = tested on: CAKI-1
CCRF-CEM = tested on: CCRF-CEM
DU-145 = tested on: DU-145
EKVX = tested on: EKVX
HCC 2998 = tested on: HCC 2998
HCT-15 = tested on: HCT-15
HL-60 = tested on: HL-60
Hs-578T = tested on: Hs-578T
LOX IMVI = tested on: LOX IMVI
MCF7 = tested on: MCF7
MDA-MB-231 = tested on: MDA-MB-231
MDA-MB-435 = tested on: MDA-MB-435
MDA-N = tested on: MDA-N
MOLT-4 = tested on: MOLT-4
NCI-H226 = tested on: NCI-H226
NCI-H522 = tested on: NCI-H522
NCI/ADR-RES = tested on: NCI/ADR-RES
OVCAR-8 = tested on: OVCAR-8
PC-3 = tested on: PC-3
SK-MEL-5 = tested on: SK-MEL-5
SN12C = tested on: SN12C
SR = tested on: SR
SW-620 = tested on: SW-620
T47D = tested on: T47D
TK-10 = tested on: TK-10

For CCOP(=O)(OCC)/C(C#N)=C/c1cc(O)ccc1O, the GI50 (A498) was > 100 µM (inactive), the GI50 (ACHN) was > 100 µM (inactive) and the GI50 (COLO 205) was > 100 µM (inactive). For the same compound, the GI50 (DMS-114) was > 100 µM (inactive), the GI50 (HCT-116) was > 100 µM (inactive) and the GI50 (HOP-62) was > 100 µM (inactive). For the same compound, the GI50 (HOP-92) was > 100 µM (inactive), the GI50 (HT-29) was > 100 µM (inactive) and the GI50 (IGROV-1) was > 100 µM (inactive). The GI50 (K562) was > 100 µM (inactive), the GI50 (KM-20L2) was > 100 µM (inactive) and the GI50 (KM12) was > 100 µM (inactive). For the same compound, the GI50 (LXFL 529) was > 100 µM (inactive), the GI50 (M14) was > 100 µM (inactive) and the GI50 (M19-MEL) was > 100 µM (inactive). For the same compound, the GI50 (Malme-3M) was > 100 µM (inactive), the GI50 (NCI-H23) was > 100 µM (inactive) and the GI50 (NCI-H460) was > 100 µM (inactive). The GI50 (OVCAR-3) was > 100 µM (inactive), the GI50 (OVCAR-4) was > 100 µM (inactive) and the GI50 (OVCAR-5) was > 100 µM (inactive). For the same compound, the GI50 (RPMI-8226) was > 100 µM (inactive), the GI50 (RXF 393) was > 100 µM (inactive) and the GI50 (SF-268) was > 100 µM (inactive). The GI50 (SF-295) was > 100 µM (inactive), the GI50 (SF-539) was > 100 µM (inactive) and the GI50 (SK-MEL-28) was > 100 µM (inactive). The GI50 (SK-MEL-2) was > 100 µM (inactive), the GI50 (SK-OV-3) was > 100 µM (inactive) and the GI50 (SNB-19) was > 100 µM (inactive). For the same compound, the GI50 (SNB-75) was 79.3 µM (inactive), the GI50 (SNB-78) was > 100 µM (inactive) and the GI50 (U-251) was > 100 µM (inactive). The GI50 (UACC-257) was > 100 µM (inactive), the GI50 (UACC-62) was > 100 µM (inactive) and the GI50 (UO-31) was > 100 µM (inactive).
C[C@@]12CCC(=O)C=C1CC[C@H]1C2=CC[C@]2(C)C1CC[C@@]2(C)O (some centres undefined) was tested, and the GI50 (786-0) was > 100 µM (inactive), the GI50 (A498) was > 100 µM (inactive) and the GI50 (A549) was 50.4 µM (inactive). The GI50 (ACHN) was > 100 µM (inactive), the GI50 (BT-549) was 33.1 µM (inactive) and the GI50 (CAKI-1) was 48.3 µM (inactive). The GI50 (CCRF-CEM) was 40.4 µM (inactive), the GI50 (COLO 205) was 35 µM (inactive) and the GI50 (DU-145) was > 100 µM (inactive). For the same compound, the GI50 (EKVX) was > 100 µM (inactive), the GI50 (HCC 2998) was 49 µM (inactive) and the GI50 (HCT-116) was 52 µM (inactive). For the same compound, the GI50 (HCT-15) was 36.2 µM, the GI50 (HL-60) was 25.4 µM (inactive) and the GI50 (HOP-62) was 67.8 µM (inactive). For the same compound, the GI50 (HOP-92) was > 100 µM (inactive), the GI50 (HT-29) was 37.9 µM (inactive) and the GI50 (Hs-578T) was 38.2 µM (inactive). For the same compound, the GI50 (IGROV-1) was 79.3 µM (inactive), the GI50 (K562) was 38.4 µM (inactive) and the GI50 (KM12) was 29.7 µM (inactive). For the same compound, the GI50 (LOX IMVI) was > 100 µM (inactive), the GI50 (M14) was 50.6 µM (inactive) and the GI50 (MCF7) was 57.3 µM (inactive). The GI50 (MDA-MB-231) was 67.5 µM (inactive), the GI50 (MDA-MB-435) was 23.3 µM (inactive) and the GI50 (MDA-N) was 23 µM (inactive). The GI50 (MOLT-4) was 38.4 µM (inactive), the GI50 (Malme-3M) was > 100 µM (inactive) and the GI50 (NCI-H226) was > 100 µM (inactive). For the same compound, the GI50 (NCI-H23) was 66.8 µM (inactive), the GI50 (NCI-H460) was 43.6 µM (inactive) and the GI50 (NCI-H522) was 28.1 µM (inactive). The GI50 (NCI/ADR-RES) was 34.7 µM (inactive), the GI50 (OVCAR-3) was 34.1 µM (inactive) and the GI50 (OVCAR-4) was 25.2 µM (inactive). For the same compound, the GI50 (OVCAR-5) was > 100 µM (inactive), the GI50 (OVCAR-8) was > 100 µM (inactive) and the GI50 (PC-3) was 41.5 µM (inactive). The GI50 (RPMI-8226) was 54.7 µM (inactive), the GI50 (RXF 393) was > 100 µM (inactive) and the GI50 (SF-268) was 75.2 µM (inactive). For the same compound, the GI50 (SF-295) was 32.3 µM (inactive), the GI50 (SF-539) was 61.9 µM (inactive) and the GI50 (SK-MEL-28) was > 100 µM (inactive). For the same compound, the GI50 (SK-MEL-2) was 38 µM (inactive), the GI50 (SK-MEL-5) was 41.6 µM (inactive) and the GI50 (SK-OV-3) was 54.6 µM (inactive). For the same compound, the GI50 (SN12C) was 88.7 µM (inactive), the GI50 (SNB-19) was > 100 µM (inactive) and the GI50 (SNB-75) was 66.1 µM (inactive). The GI50 (SR) was 34.8 µM (inactive), the GI50 (SW-620) was 40.6 µM (inactive) and the GI50 (T47D) was 73.5 µM (inactive). The GI50 (TK-10) was > 100 µM (inactive), the GI50 (U-251) was 41.3 µM (inactive) and the GI50 (UACC-257) was 69.2 µM (inactive). The GI50 (UACC-62) was 37 µM (inactive) and the GI50 (UO-31) was 41.9 µM (inactive).
CN(CCN(C)CCN(C)C(=O)Cc1ccc(Cl)c(Cl)c1)CCN1CCCC1 was tested, and the GI50 (786-0) was 19.5 µM (inactive), the GI50 (A498) was 16.4 µM (inactive) and the GI50 (A549) was 37 µM (inactive). For the same compound, the GI50 (ACHN) was 45.9 µM (inactive), the GI50 (BT-549) was 25.7 µM (inactive) and the GI50 (CAKI-1) was 35.2 µM (inactive). The GI50 (CCRF-CEM) was 11.6 µM (inactive), the GI50 (COLO 205) was 16.3 µM (inactive) and the GI50 (DU-145) was 57.3 µM (inactive). The GI50 (EKVX) was 45.4 µM (inactive), the GI50 (HCC 2998) was 11.7 µM (inactive) and the GI50 (HCT-116) was 25 µM (inactive). For the same compound, the GI50 (HCT-15) was 37.3 µM, the GI50 (HL-60) was 18.2 µM (inactive) and the GI50 (HOP-62) was 25.4 µM (inactive). For the same compound, the GI50 (HOP-92) was 5.71 µM (inactive), the GI50 (HT-29) was 7.36 µM (inactive) and the GI50 (Hs-578T) was 28.5 µM (inactive). For the same compound, the GI50 (IGROV-1) was 31.1 µM (inactive), the GI50 (K562) was 3.24 µM (inactive) and the GI50 (KM12) was 35 µM (inactive). The GI50 (LOX IMVI) was 16.6 µM (inactive), the GI50 (M14) was 25.9 µM (inactive) and the GI50 (MCF7) was 24.2 µM (inactive). The GI50 (MDA-MB-231) was 17.7 µM (inactive), the GI50 (MDA-MB-435) was 5.68 µM (inactive) and the GI50 (MDA-N) was 6.85 µM (inactive). The GI50 (MOLT-4) was 10.6 µM (inactive), the GI50 (Malme-3M) was 20.5 µM (inactive) and the GI50 (NCI-H226) was 30.5 µM (inactive). For the same compound, the GI50 (NCI-H23) was 30.5 µM (inactive), the GI50 (NCI-H460) was 26.9 µM (inactive) and the GI50 (NCI-H522) was 20.6 µM (inactive). For the same compound, the GI50 (NCI/ADR-RES) was > 100 µM (inactive), the GI50 (OVCAR-3) was 63.5 µM (inactive) and the GI50 (OVCAR-4) was 77.6 µM (inactive). The GI50 (OVCAR-5) was 37.5 µM (inactive), the GI50 (OVCAR-8) was 34.9 µM (inactive) and the GI50 (PC-3) was 34.7 µM (inactive). For the same compound, the GI50 (RPMI-8226) was 5.5 µM (inactive), the GI50 (RXF 393) was 16.2 µM (inactive) and the GI50 (SF-268) was 41.2 µM (inactive). The GI50 (SF-295) was 19.6 µM (inactive), the GI50 (SF-539) was 21.8 µM (inactive) and the GI50 (SK-MEL-28) was 1.94 µM (inactive). The GI50 (SK-MEL-2) was 16 µM (inactive), the GI50 (SK-MEL-5) was 15.2 µM (inactive) and the GI50 (SK-OV-3) was 46.8 µM (inactive). For the same compound, the GI50 (SN12C) was 39 µM (inactive), the GI50 (SNB-19) was 39 µM (inactive) and the GI50 (SNB-75) was 28 µM (inactive). For the same compound, the GI50 (SR) was 16.5 µM (inactive), the GI50 (SW-620) was 20.3 µM (inactive) and the GI50 (T47D) was 24.6 µM (inactive). The GI50 (TK-10) was 26.1 µM (inactive), the GI50 (U-251) was 19 µM (inactive) and the GI50 (UACC-257) was 5.11 µM (inactive). For the same compound, the GI50 (UACC-62) was 4.52 µM (inactive) and the GI50 (UO-31) was 1.92 µM (inactive).
